Experimental data reported in EP2818472A1, “Imidazo[4,5-c]pyridine and pyrrolo[3,2-c]pyridine compounds as G-protein-coupled receptor kinase 5 (GRK5) modulators” (Max-Planck-Gesellschaft zur Förderung der Wissenschaften …, priority 2013, dated 2014).

test system: beta-TC6 cells; assay: Insulin HTRF assay (relative activity Ar) in beta-TC6 cells; format: cell-based, mouse; conditions: Mus musculus, Beta-TC6, 4 h, insulin HTRF, supernatant of beta-TC6 cells, incubation with test compound at 37°C for 2, 3, 4h; read-out: Ar (relative activity)
Procedure, shortened: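 beta-TC6 cells (15k/well, seeded 24 or 48 h) washed, then exposed to compound in induction buffer (0.5% DMSO final) for 2, 3 or 4 h at 37°C.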

Row | Compound | Emax [%]
1 | Cc1cccc(CNc2nc3cnc(Nc4cccc(O)c4)cc3n2C)c1 [Compound 585, 3-[[1-methyl-2-(m-tolylmethylamino)imidazo[4,5-c]pyridin-6-yl]amino]phenol] | 50 to 100
2 | COc1ncccc1-c1cc2c(cn1)nc(NCc1cccc(C)c1)n2C [Compound 586, 6-(2-methoxy-3-pyridyl)-1-methyl-N-(m-tolylmethyl)imidazo[4,5-c]pyridin-2-amine] | 30 to 50
3 | Cc1cccc(CNc2nc3cnc(Nc4cccc(NS(C)(=O)=O)c4)cc3n2C)c1 [Compound 587, N-[3-[[1-methyl-2-(m-tolylmethylamino)imidazo[4,5-c]pyridin-6-yl]amino]phenyl]methanesulfonamide] | 50 to 100
4 | COc1cc(Nc2nc3cnc(-c4ccccc4)cc3n2C)cc(OC)c1OC [Compound 588, 1-methyl-6-phenyl-N-(3,4,5-trimethoxyphenyl)imidazo[4,5-c]pyridin-2-amine] | 30 to 50
5 | COc1cc(Nc2nc3cnc(-c4cccnc4)cc3n2C)cc(OC)c1OC [Compound 589, 1-methyl-6-(3-pyridyl)-N-(3,4,5-trimethoxyphenyl)imidazo[4,5-c]pyridin-2-amine] | 50 to 100
6 | Cn1c(Nc2cccc(C(F)(F)F)c2)nc2cnc(-c3ccc(N)nc3)cc21 [Compound 590, 6-(6-amino-3-pyridyl)-1-methyl-N-[3-(trifluoromethyl)phenyl]imidazo[4,5-c]pyridin-2-amine] | 50 to 100
7 | COc1ccc(OC)c(CCNc2nc3cnc(-c4ccncc4)cc3n2C)c1 [Compound 591, N-[2-(2,5-dimethoxyphenyl)ethyl]-1-methyl-6-(4-pyridyl)imidazo[4,5-c]pyridin-2-amine] | 30 to 50
8 | COc1ccc(OC)c(CCNc2nc3cnc(-c4ccsc4)cc3n2C)c1 [Compound 592, N-[2-(2,5-dimethoxyphenyl)ethyl]-1-methyl-6-(3-thienyl)imidazo[4,5-c]pyridin-2-amine] | 50 to 100
9 | COc1ccc(OC)c(CCNc2nc3cnc(-c4cc(OC)c(OC)c(OC)c4)cc3n2C)c1 [Compound 593, N-[2-(2,5-dimethoxyphenyl)ethyl]-1-methyl-6-(3,4,5-trimethoxyphenyl)imidazo[4,5-c]pyridin-2-amine] | 30 to 50
10 | COc1ccc(OC)c(CCNc2nc3cnc(-c4ccc(O)c(OC)c4)cc3n2C)c1 [Compound 594, 4-[2-[2-(2,5-dimethoxyphenyl)ethylamino]-1-methyl-imidazo[4,5-c]pyridin-6-yl]-2-methoxy-phenol] | 30 to 50
11 | COc1ccc(OC)c(CCNc2nc3cnc(-c4cccs4)cc3n2C)c1 [Compound 595, N-[2-(2,5-dimethoxyphenyl)ethyl]-1-methyl-6-(2-thienyl)imidazo[4,5-c]pyridin-2-amine] | 30 to 50
12 | Cn1c(NCC2CC2)nc2cnc(-c3ccsc3)cc21 [Compound 596, N-(cyclopropylmethyl)-1-methyl-6-(3-thienyl)imidazo[4,5-c]pyridin-2-amine] | 50 to 100
13 | Cn1c(NCC2CC2)nc2cnc(-c3ccc(N4CCNCC4)cc3)cc21 [Compound 597, N-(cyclopropylmethyl)-1-methyl-6-(4-piperazin-1-ylphenyl)imidazo[4,5-c]pyridin-2-amine] | 50 to 100
14 | Cn1c(NCC2CC2)nc2cnc(Nc3ccc4c(c3)OCO4)cc21 [Compound 598, N6-(1,3-benzodioxol-5-yl)-N2-(cyclopropylmethyl)-1-methyl-imidazo[4,5-c]pyridine-2,6-diamine] | 30 to 50
15 | COc1ccc(CNc2nc3cnc(Nc4cc(OC)c(OC)c(OC)c4)cc3n2C)cc1OC [Compound 599, N2-[(3,4-dimethoxyphenyl)methyl]-1-methyl-N6-(3,4,5-trimethoxyphenyl)imidazo[4,5-c]pyridine-2,6-diamine] | 50 to 100
16 | COc1ccc(CNc2nc3cnc(Nc4ccc(NC(C)=O)cc4)cc3n2C)cc1OC [Compound 600, N-[4-[[2-[(3,4-dimethoxyphenyl)methylamino]-1-methyl-imidazo[4,5-c]pyridin-6-yl]amino]phenyl]acetamide] | 50 to 100
17 | COc1ccc(CNc2nc3cnc(Nc4ccc(C(N)=O)cc4)cc3n2C)cc1OC [Compound 601, 4-[[2-[(3,4-dimethoxyphenyl)methylamino]-1-methyl-imidazo[4,5-c]pyridin-6-yl]amino]benzamide] | 50 to 100
18 | COc1ccc(Nc2cc3c(cn2)nc(NCc2ccc(OC)c(OC)c2)n3C)c(OC)c1 [Compound 602, N6-(2,4-dimethoxyphenyl)-N2-[(3,4-dimethoxyphenyl)methyl]-1-methyl-imidazo[4,5-c]pyridine-2,6-diamine] | 30 to 50
19 | COc1ccc(CNc2nc3cnc(Nc4ccc(OC)c(OC)c4)cc3n2C)cc1OC [Compound 603, N6-(3,4-dimethoxyphenyl)-N2-[(3,4-dimethoxyphenyl)methyl]-1-methyl-imidazo[4,5-c]pyridine-2,6-diamine] | 50 to 100
20 | COc1ccc(CNc2nc3cnc(Nc4ccccc4)cc3n2C)cc1OC [Compound 604, N2-[(3,4-dimethoxyphenyl)methyl]-1-methyl-N6-phenyl-imidazo[4,5-c]pyridine-2,6-diamine] | 30 to 50
21 | COc1ccc(CNc2nc3cnc(Nc4ccc(N5CCN(C)CC5)cc4)cc3n2C)cc1OC [Compound 605, N2-[(3,4-dimethoxyphenyl)methyl]-1-methyl-N6-[4-(4-methylpiperazin-1-yl)phenyl]imidazo[4,5-c]pyridine-2,6-diamine] | 50 to 100

Row | Compound | Emax [%]
22 | COc1ccc(Nc2cc3c(cn2)nc(NCc2ccc(OC)c(OC)c2)n3C)cc1 [Compound 606, N2-[(3,4-dimethoxyphenyl)methyl]-N6-(4-methoxyphenyl)-1-methyl-imidazo[4,5-c]pyridine-2,6-diamine] | 50 to 100
23 | COc1ccc(CNc2nc3cnc(Nc4ccc(F)cc4)cc3n2C)cc1OC [Compound 607, N2-[(3,4-dimethoxyphenyl)methyl]-N6-(4-fluorophenyl)-1-methyl-imidazo[4,5-c]pyridine-2,6-diamine] | 50 to 100
24 | COc1ccc(CNc2nc3cnc(Nc4cccc(S(C)(=O)=O)c4)cc3n2C)cc1OC [Compound 608, N2-[(3,4-dimethoxyphenyl)methyl]-1-methyl-N6-(3-methylsulfonylphenyl)imidazo[4,5-c]pyridine-2,6-diamine] | 30 to 50
25 | CNc1nc2cnc(Nc3cc(OC)c(OC)c(OC)c3)cc2n1C [Compound 609, N2,1-dimethyl-N6-(3,4,5-trimethoxyphenyl)imidazo[4,5-c]pyridine-2,6-diamine] | 50 to 100
26 | CNc1nc2cnc(Nc3ccc(OC)cc3OC)cc2n1C [Compound 610, N6-(2,4-dimethoxyphenyl)-N2,1-dimethyl-imidazo[4,5-c]pyridine-2,6-diamine] | 50 to 100
27 | CNc1nc2cnc(Nc3ccc(F)cc3)cc2n1C [Compound 611, N6-(4-fluorophenyl)-N2,1-dimethyl-imidazo[4,5-c]pyridine-2,6-diamine] | 30 to 50
28 | CNc1nc2cnc(-c3ccc(O)c(OC)c3)cc2n1C [Compound 612, 2-methoxy-4-[1-methyl-2-(methylamino)imidazo[4,5-c]pyridin-6-yl]phenol] | 50 to 100
29 | COc1ccccc1Nc1nc2cnc(-c3cccnc3)cc2n1C [Compound 613, N-(2-methoxyphenyl)-1-methyl-6-(3-pyridyl)imidazo[4,5-c]pyridin-2-amine] | 50 to 100
30 | Cn1c(NCc2ccccc2)nc2cnc(-c3ccc(N4CCOCC4)cc3)cc21 [Compound 614, N-benzyl-1-methyl-6-(4-morpholinophenyl)imidazo[4,5-c]pyridin-2-amine] | 50 to 100
31 | CN(C)c1ccc(-c2cc3c(cn2)nc(NCc2ccccc2)n3C)cc1 [Compound 615, N-benzyl-6-(4-dimethylaminophenyl)-1-methyl-imidazo[4,5-c]pyridin-2-amine] | > 100
32 | COc1cc(Nc2cc3c(cn2)nc(NCc2ccccc2)n3C)cc(OC)c1OC [Compound 616, N2-benzyl-1-methyl-N6-(3,4,5-trimethoxyphenyl)imidazo[4,5-c]pyridine-2,6-diamine] | 50 to 100
33 | CC(=O)Nc1ccc(Nc2cc3c(cn2)nc(NCc2ccccc2)n3C)cc1 [Compound 617, N-[4-[[2-(benzylamino)-1-methyl-imidazo[4,5-c]pyridin-6-yl]amino]phenyl]acetamide] | 50 to 100
34 | COc1ccc(Nc2cc3c(cn2)nc(NCc2ccccc2)n3C)cn1 [Compound 618, N2-benzyl-N6-(6-methoxy-3-pyridyl)-1-methyl-imidazo[4,5-c]pyridine-2,6-diamine] | 50 to 100
35 | CN(C)c1cccc(Nc2cc3c(cn2)nc(NCc2ccccc2)n3C)c1 [Compound 619, N2-benzyl-N6-[3-(dimethylamino)phenyl]-1-methyl-imidazo[4,5-c]pyridine-2,6-diamine] | 50 to 100
36 | CN(C)c1cccc(-c2cc3c(cn2)nc(NCc2ccccc2)n3C)c1 [Compound 620, N-benzyl-6-[3-(dimethylamino)phenyl]-1-methyl-imidazo[4,5-c]pyridin-2-amine] | > 100
37 | COc1ccc(Nc2cc3c(cn2)nc(NCc2ccccc2)n3C)cc1 [Compound 621, N2-benzyl-N6-(4-methoxyphenyl)-1-methyl-imidazo[4,5-c]pyridine-2,6-diamine] | 50 to 100
38 | Cn1c(NCc2ccccc2)nc2cnc(Nc3cccc(O)c3)cc21 [Compound 622, 3-[[2-(benzylamino)-1-methyl-imidazo[4,5-c]pyridin-6-yl]amino]phenol] | 50 to 100
39 | Cn1c(NCc2ccccc2)nc2cnc(-c3cncnc3)cc21 [Compound 623, N-benzyl-1-methyl-6-pyrimidin-5-yl-imidazo[4,5-c]pyridin-2-amine] | 30 to 50
40 | Cn1cc(-c2cc3c(cn2)nc(NCc2ccccc2)n3C)cn1 [Compound 624, N-benzyl-1-methyl-6-(1-methylpyrazol-4-yl)imidazo[4,5-c]pyridin-2-amine] | 30 to 50
41 | Cn1c(NCc2ccccc2)nc2cnc(-c3ccc(N)nc3)cc21 [Compound 625, 6-(6-amino-3-pyridyl)-N-benzyl-1-methyl-imidazo[4,5-c]pyridin-2-amine] | > 100
